Data from the CheMixHub viscosity set.

Assay: xn = mol fraction of the nth substance listed

CCCCN(CCCC)CCCC + CC(C)O
viscosity [mPa·s], 101.33 kPa
Conditions | 298.15 K | 303.15 K | 308.15 K | 313.15 K | 318.15 K | 323.15 K
x1 = 0.0562 | 1.977 | – | 1.524 | – | 1.172 | –
x1 = 0.1016 | – | 1.679 | – | 1.292 | – | 1.009
x1 = 0.1175 | 1.876 | – | 1.46 | – | 1.132 | –
x1 = 0.1477 | – | 1.619 | – | 1.256 | – | 0.988
x1 = 0.1499 | 1.827 | – | 1.429 | – | 1.113 | –
x1 = 0.1897 | 1.772 | – | 1.394 | – | 1.092 | –
x1 = 0.1953 | – | 1.562 | – | 1.223 | – | 0.968
x1 = 0.224 | 1.728 | – | 1.367 | – | 1.075 | –
x1 = 0.2585 | – | 1.496 | – | 1.185 | – | 0.945
x1 = 0.2648 | 1.681 | – | 1.338 | – | 1.057 | –
x1 = 0.3035 | 1.641 | – | 1.313 | – | 1.041 | –
x1 = 0.3076 | – | 1.452 | – | 1.16 | – | 0.93
x1 = 0.3493 | 1.6 | – | 1.287 | – | 1.024 | –
x1 = 0.3539 | – | 1.415 | – | 1.139 | – | 0.918
x1 = 0.404 | 1.559 | – | 1.26 | – | 1.007 | –
x1 = 0.4061 | – | 1.379 | – | 1.118 | – | 0.906
x1 = 0.4528 | 1.528 | 1.351 | 1.24 | 1.101 | 0.994 | 0.898
x1 = 0.4899 | 1.508 | – | 1.226 | – | 0.985 | –
x1 = 0.5047 | – | 1.324 | – | 1.086 | – | 0.889
x1 = 0.5476 | – | 1.304 | – | 1.073 | – | 0.884
x1 = 0.5541 | 1.479 | – | 1.206 | – | 0.972 | –
x1 = 0.604 | 1.46 | – | 1.192 | – | 0.962 | –
x1 = 0.611 | – | 1.278 | – | 1.059 | – | 0.876
x1 = 0.6925 | 1.434 | – | 1.172 | – | 0.948 | –
x1 = 0.7023 | – | 1.247 | – | 1.042 | – | 0.866
x1 = 0.7872 | – | 1.221 | – | 1.027 | – | 0.859
x1 = 0.8457 | 1.399 | – | 1.145 | – | 0.927 | –
x1 = 0.9375 | – | 1.181 | – | 1.004 | – | 0.848
x1 = 0.9696 | – | 1.173 | – | 0.999 | – | 0.847

CCCCN(CCCC)CCCC + CCCO
viscosity [mPa·s]
Conditions | 298.15 K | 303.15 K | 308.15 K | 313.15 K | 318.15 K | 323.15 K
101.3 kPa, x1 = 0.0929 | – | 1.75 | – | 1.364 | – | –
101.3 kPa, x1 = 0.1877 | – | 1.712 | – | 1.328 | – | –
101.3 kPa, x1 = 0.2897 | – | – | – | 1.289 | – | –
101.3 kPa, x1 = 0.3991 | – | 1.605 | – | 1.245 | – | –
101.3 kPa, x1 = 0.5176 | – | 1.529 | – | – | – | –
101.3 kPa, x1 = 0.616 | – | 1.462 | – | – | – | –
101.3 kPa, x1 = 0.7064 | – | 1.392 | – | – | – | –
101.3 kPa, x1 = 0.8055 | – | 1.307 | – | – | – | –
101.3 kPa, x1 = 0.8864 | – | 1.252 | – | – | – | –
101.33 kPa, x1 = 0.0994 | – | – | – | 1.412 | – | 1.318
101.33 kPa, x1 = 0.1089 | 1.974 | – | 1.622 | – | 1.465 | –
101.33 kPa, x1 = 0.1447 | – | 1.7 | – | 1.398 | – | 1.343
101.33 kPa, x1 = 0.1916 | – | – | – | 1.375 | – | 1.342
101.33 kPa, x1 = 0.2045 | 1.895 | – | 1.558 | – | 1.436 | –
101.33 kPa, x1 = 0.2539 | 1.845 | 1.603 | 1.519 | 1.34 | 1.403 | 1.315
101.33 kPa, x1 = 0.3026 | 1.795 | 1.558 | 1.481 | 1.308 | 1.366 | 1.283
101.33 kPa, x1 = 0.3485 | – | 1.517 | – | 1.277 | – | 1.247
101.33 kPa, x1 = 0.3584 | 1.739 | – | 1.437 | – | 1.32 | –
101.33 kPa, x1 = 0.4003 | 1.7 | 1.473 | 1.407 | 1.244 | 1.286 | 1.206
101.33 kPa, x1 = 0.4469 | 1.66 | 1.436 | 1.375 | 1.216 | 1.249 | 1.17
101.33 kPa, x1 = 0.4987 | 1.619 | 1.4 | 1.342 | 1.187 | 1.211 | 1.133
101.33 kPa, x1 = 0.5417 | – | 1.372 | – | 1.165 | – | 1.104
101.33 kPa, x1 = 0.5569 | 1.58 | – | 1.309 | – | 1.171 | –
101.33 kPa, x1 = 0.6053 | 1.551 | 1.335 | 1.284 | 1.136 | 1.14 | 1.065
101.33 kPa, x1 = 0.6587 | 1.523 | – | 1.259 | – | 1.108 | –
101.33 kPa, x1 = 0.6973 | 1.504 | 1.289 | 1.242 | 1.098 | 1.085 | 1.012
101.33 kPa, x1 = 0.7606 | 1.474 | – | 1.216 | – | 1.047 | –
101.33 kPa, x1 = 0.7832 | – | 1.251 | – | 1.066 | – | 0.962
101.33 kPa, x1 = 0.8067 | 1.454 | – | 1.197 | – | 1.02 | –
101.33 kPa, x1 = 0.9104 | 1.409 | – | 1.156 | – | 0.959 | –
101.33 kPa, x1 = 0.9361 | – | 1.189 | – | 1.013 | – | 0.873
101.33 kPa, x1 = 0.9688 | – | 1.177 | – | 1.004 | – | 0.858

CCCCN(CCCC)CCCC + CCO
viscosity [mPa·s], 101.33 kPa
Conditions | 298.15 K | 303.15 K | 308.15 K | 313.15 K | 318.15 K | 323.15 K
x1 = 0.0992 | – | 1.26 | – | 1.084 | – | 0.951
x1 = 0.1034 | 1.393 | – | 1.17 | – | 1.011 | –
x1 = 0.1456 | 1.458 | – | 1.225 | – | 1.06 | –
x1 = 0.1561 | – | 1.334 | – | 1.151 | – | 1.015
x1 = 0.1969 | – | 1.357 | – | 1.174 | – | 1.035
x1 = 0.2099 | 1.508 | – | 1.267 | – | 1.094 | –
x1 = 0.2529 | 1.52 | 1.371 | 1.276 | 1.183 | 1.098 | 1.04
x1 = 0.2945 | – | 1.367 | – | 1.18 | – | 1.033
x1 = 0.3036 | 1.52 | – | 1.274 | – | 1.091 | –
x1 = 0.3531 | 1.511 | – | 1.265 | – | 1.078 | –
x1 = 0.3639 | – | 1.349 | – | 1.163 | – | 1.012
x1 = 0.3986 | 1.501 | 1.341 | 1.255 | 1.153 | 1.065 | 1
x1 = 0.4508 | 1.488 | 1.325 | 1.242 | 1.137 | 1.049 | 0.982
x1 = 0.4951 | 1.477 | – | 1.231 | – | 1.036 | –
x1 = 0.503 | – | 1.309 | – | 1.122 | – | 0.967
x1 = 0.5448 | 1.467 | – | 1.221 | – | 1.024 | –
x1 = 0.5537 | – | 1.294 | – | 1.11 | – | 0.954
x1 = 0.601 | 1.458 | – | 1.211 | – | 1.012 | –
x1 = 0.6426 | – | 1.267 | – | 1.09 | – | 0.936
x1 = 0.6648 | 1.448 | – | 1.199 | – | 0.998 | –
x1 = 0.7126 | 1.441 | – | 1.19 | – | 0.988 | –
x1 = 0.7382 | – | 1.249 | – | 1.067 | – | 0.915
x1 = 0.7934 | 1.424 | – | 1.173 | – | 0.967 | –
x1 = 0.8711 | – | 1.207 | – | 1.027 | – | 0.876
x1 = 0.9196 | – | 1.186 | – | 1.012 | – | 0.861
x1 = 0.9232 | 1.391 | – | 1.138 | – | 0.928 | –
x1 = 0.9604 | – | 1.176 | – | 1.002 | – | 0.851
